Experimental data from patent EP0405436B1, “Dihetero nitrogen-containing cycloheteroethanoanthracene derivatives as antipsychotic agents” (G.D. Searle & Co., priority 1989, dated 1991).
Like-named read-outs stand apart in the source and are kept apart here.

Tests used:
sigma receptor = sigma receptor (Rattus norvegicus, UniProt Q9R0C9); format: binding, male Sprague-Dawley rats
Experimental: To determine the effects of the compounds in a sigma receptor assay, crude membrane preparations were prepared as follows. Brains from male Sprague-Dawley rats were homogenized in 10 volumes (wt/vol) of 0.32 M sucrose, using a Polytron grinder. The homogenate was centrifuged at 900 X G for 10 minutes at 4°C. The supernatant was collected and centrifuged at 22,000 X g for 20 minutes at 4°C. The pellet was resuspended in 10 volumes of 50 mM Tris/HCl buffer (pH 7.4) and centrifuged at 22,000 X g for 20 minutes at 4°C. The pellet was resuspended in 5 mM Tris/HCl buffer (pH 7.4) to give a final concentration of 250 mg/ml of the crude material. Incubation tubes were prepared in triplicate and contained 0.1 ml of tissue suspension, 2 nM of [³H]-(+)-1-propyl-3-(3-hydroxyphenyl)piperidine {[³H]-3-(+)-PPP}, and varying concentrations of the displacing ligand (0.1-1000 nM) in a final volume of 0.5 ml. After a 1 hr incubation at room temperature, the contents of the test tubes were filtered through GS filter paper which had been presoaked for at least 2 hours in 0.05% polyethyleneimine. The test tubes were rinsed three times with Tris/HCl buffer. Radioactivity on the filters was determined using […] [Biochem. Pharmacol., 22, 3099-3108, 1973].

[1] = tested on: apomorphine-induced climbing; test: Blockade of apomorphine-induced climbing; format: in vivo, Swiss-Webster mice; details: Mus musculus; mice, i.p. or s.c. pretreatment; 2 mg/kg apomorphine s.c.; rated at 10 and 20 minutes; read-out: Blockade of Apomorphine-induced Climbing ED₅₀
Experimental: Compounds of the invention were evaluated for their ability to block apomorphine-induced climbing. The evaluation of the compounds followed the method outlined by Protais [Psychopharmacol., 50, 1-6, 1976]. Swiss-Webster mice, weighing 20-25 g, are pretreated with the compounds of the invention by i.p. or s.c. administration at various times before 2 mg/kg apomorphine is administered s.c in a volume of 1 ml/kg. All test compounds are administered in a volume of 10 ml/kg. Mice are rated at 10 and 20 minutes after apomorphine administration using the following rating scale: (0) forepaws on the floor, (1) forefeet holding the bars, and (2) four paws holding bars. Dose-response curves are analyzed by a computerized Finney assay [Statistical Methods in Biological Assays, 2nd Edn., Hatner Pub. Co., New York (1964)].

[2] = read-out: Ki apparent (nM) (units ± SEM); rat brain membranes, 2 nM [³H]-3-(+)-PPP, 1 hr at room temperature, displacing ligand 0.1-1000 nM

Chain of sigma receptor (Q9R0C9 whole entry): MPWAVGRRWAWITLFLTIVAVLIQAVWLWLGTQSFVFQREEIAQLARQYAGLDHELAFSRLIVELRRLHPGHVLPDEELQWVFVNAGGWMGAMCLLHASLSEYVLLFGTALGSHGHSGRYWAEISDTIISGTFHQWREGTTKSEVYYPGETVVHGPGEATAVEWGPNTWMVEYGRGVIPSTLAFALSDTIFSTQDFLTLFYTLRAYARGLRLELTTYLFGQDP

SMILES	Ki (sigma receptor; rat brain membranes, 2 nM [³H]-3-(+)-PPP, 1 hr at room temperature, displacing ligand 0.1-1000 nM; read-out: Ki apparent (nM) (units ± SEM))	Ki (sigma receptor; [2])	ED50 [1]
CN1CCN(C(=O)C2CC3c4ccccc4C2c2ccccc23)CC1 (stereo not drawn) [Compound No. 5, reference compound]	> 1000 nM	–	–
OCCN1CCN(CC2CC3c4ccccc4C2c2ccccc23)CC1 (stereo not drawn) [Compound No. 2, 4-[(9,10-dihydro-9,10-ethanoanthracenyl)methyl]-1-(2-hydroxyethyl)-piperazine]	–	21 ± 6 nM	1 mg/kg
c1ccc(CN2CCN(CC3CC4c5ccccc5C3c3ccccc34)CC2)cc1 (stereo not drawn) [Compound No. 6, 4-[(9,10-Dihydro-9,10-ethanoanthracenyl)methyl]-1-benzylpiperazine]	–	98 ± 18 nM	10 mg/kg
CN1CCN(CC2CC3c4ccccc4C2c2ccccc23)CC1 (stereo not drawn) [Compound No. 1, 4-[(9,10-Dihydro-9,10-ethanoanthracenyl)methyl]-1-methylpiperazine]	–	120 ± 20 nM	1 mg/kg
c1ccc2c(c1)C1CC(CN3CCN4CCCC4C3)C2c2ccccc21 (stereo not drawn) [Compound No. 4, 4-[(9,10-dihydro-9,10-ethanoanthracenyl)methyl]-1,4-diazabicyclo[4.3.0]nonane]	–	20 ± 3 nM	–
c1cnc(N2CCN(CC3CC4c5ccccc5C3c3ccccc34)CC2)nc1 (stereo not drawn) [Compound No. 3, 4-[(9,10-Dihydro-9,10-ethanoanthracenyl)methyl]-1-(2-pyrimidyl)piperazine]	–	> 1000 nM	–
